Measured values from patent publication US20230054039A1, “METHOD OF TREATING HER2-POSITIVE BREAST CANCER” (University of Cincinnati, priority 2021, published 2023).
Peptide text beside a SMILES is read from it. * marks the point of attachment. Cbz = O=C(OCc1ccccc1)*

What was measured:
HeLa cells = assay: Immunoblot of HER2 levels in HeLa cells treated with autophagy inhibitors (FIG. 2I); type: cell-based; conditions: 48 hrs, chloroquine 50 μM, bafilomycin 200 nM, 3-MA 5 mM, spautin-1 10 μM
Protocol: FIG. 2I. Immuno-blots showing levels of HER2 and GAPDH in HeLa cells treated by HBSS starvation, chloroquine (50 μM), bafilomycin (200 nM), 3-methyladenine (3-MA) (5 mM) and spautin-1 (10 μM) for 48 hrs.
(§1) Western blot: Cells were cultured in 3.5 cm diameter plates (80-90% confluence), washed by PBS buffer, and lysed for 15 min on ice using a RIPA buffer (#C2978, Sigma) containing an anti-protease mix (#PI78415, Thermo Scientific). Protein concentration was measured by BCA assay (#23225, Thermo Scientific). Equal amounts of proteins were subjected to SDS-PAGE and immunoblotting as described previously (Wei et al., 2011).
To further evaluate the role of autophagy in the regulation of HER2 levels, shRNA was used to knockdown expression of another essential autophagy gene, Atg5, in the two lines of HER2 tumor cells (FIGS. 2F and 2G). […] Further, decreased HER2 levels upon FIP200 deletion was due to autophagy blockade, rather than the loss of other activities of FIP200, in HER2-driven mammary tumor cells, which was consistent with the similar phenotypes of cKO and cKI mice.

Fip200−/− tumor cells = assay: Immunoblot of HER2 in Fip200-/- tumor cells treated with MG132 (FIG. 3C); type: cell-based, mouse; conditions: MG132 10 μM for 6 hours
Protocol: FIG. 3C. Immunoblots showing levels of HER2, ubiquitin and GAPDH in Fip200+/+ and Fip200−/− cells treated with DMSO and MG132 (10 μM) for 6 hours.
Cell lines and culture: Primary HER2 tumor cells from FIP200f/f; MMTV-Neu mice (N148 and N418 cells) were isolated and cultured in DMEM/F12 supplemented with 10% FBS, 10 ng/mL EGF, […], and 50 units/mL penicillin-streptomycin. HER2 tumor cells were then infected with recombinant retroviruses encoding CreERT2 and deletion of Fip200 was induced by culturing with 100 nmol/L 4-hydroxytamoxifen (4-OHT). HeLa and MCF-7 cells were obtained from ATCC and maintained in DMEM supplemented with 10% FBS. FIP200 KO and control WT MEF cells have been described previously.
as §1, with “Equal amounts of proteins were subjected to SDS-PAGE and immunoblotting as described previously (Wei et al., 2011).” left out
To further investigate regulation of HER2 by autophagy, mRNA levels of HER2 in mammary tumor and HeLa cells with or without autophagy inhibition were examined. […] Next, HER2 protein stability was analyzed and a decreased half-life of HER2 protein in Fip200−/− tumor cells (˜3 hrs) relative to Fip200+/+tumor cells (˜5 hrs) (FIGS. 3A and 3B) was observed. […]

[1] = system: FIP200 and ATG13 KO HeLa cells; assay: Immunoblot of HER2 in FIP200 KO and ATG13 KO HeLa cells treated with MG132 (FIG. 3D); type: cell-based; conditions: MG132 10 μM for 6 hours
Protocol: FIG. 3D. Immunoblots showing levels of HER2, ubiquitin and GAPDH in WT, FIP200 KO and Atg13 KO HeLa cells treated with DMSO and MG132 (10 μM) for 6 hours.
CRISPR/Cas9-mediated knockout of FIP200 or ATG13 in HeLa and MCF-7 cells and knockdown of Atg5 in HER2 tumor cells: The pX458 plasmid, pSpCas9(BB)-2A-GFP (PX458) was a gift from Feng Zhang, Addgene plasmid # 48138 was used as the cloning backbone for expressing sgFIP200 and sgATG13. The sgRNA sequences of FIP200 and ATG13 are as follows:
as §1, with “Equal amounts of proteins were subjected to SDS-PAGE and immunoblotting as described previously (Wei et al., 2011).” left out
To further investigate regulation of HER2 by autophagy, mRNA levels of HER2 in mammary tumor and HeLa cells with or without autophagy inhibition were examined. […] Next, HER2 protein stability was analyzed and a decreased half-life of HER2 protein in Fip200−/− tumor cells (˜3 hrs) relative to Fip200+/+tumor cells (˜5 hrs) (FIGS. 3A and 3B) was observed. MG132 was used to inhibit proteasome-mediated protein degradation and its effect on HER2 protein levels in autophagy deficient HER2 tumor and HeLa cells was determined.

[2] = system: FIP200 and ATG13 KO HeLa cells; assay: Immunoblot of HER2 in FIP200 KO and ATG13 KO HeLa cells treated with Dynasore (FIG. 13C); type: cell-based; conditions: 20 μM Dynasore for 24 hours
Protocol: FIG. 13C. Immuno-blots showing levels of HER2 and GAPDH in WT, FIP200 KO and ATG13 KO HeLa cells with or without treatment of 20 μM Dynasore for 24 hours, as indicated.
as §1
To test the above possibility directly, endocytosis of HER2 in HeLa cells with or without autophagy blockade was examined. […] In addition to endocytosis from the plasma membrane, proteins from the Golgi could be transported through endosomes to the lysosome or other compartments. […] Co-expression of mTurquoise2-beta-1,4-galactosyltransferase 1 (which constitutively expresses in the Golgi) in these cells further supported accumulation of HER2 in the Golgi of FIP200 and ATG13 KO HeLa cells (FIG. 4E).

CCN(CC)CCCC(C)Nc1ccnc2cc(Cl)ccc12 (centres unmarked) [chloroquine]
levels of HER2 (HeLa cells): reduced HER2 levels

CC(C)C[C@@H](C=O)NC(=O)[C@H](CC(C)C)NC(=O)[C@H](CC(C)C)NC(=O)OCc1ccccc1 [MG132] (Cbz-Leu-Leu-Leu-aldehyde)
reversal of reduced levels of HER2 protein (Fip200−/− tumor cells): did not significantly reverse the reduced levels of HER2 protein | reversal of reduced levels of HER2 protein [1]: did not significantly reverse the reduced levels of HER2 protein

O=C(N/N=C/c1ccc(O)c(O)c1)c1cc2ccccc2cc1O [Dynasore]
rescue of decreased level of HER2 [2]: did not rescue the decreased level of HER2

CO/C1=C\C(C)=C\[C@@H](C)[C@@H](O)[C@@H](C)C/C(C)=C/C=C/[C@H](OC)[C@@H]([C@@H](C)[C@@H](O)[C@H](C)[C@@]2(O)C[C@@H](O)[C@H](C)[C@@H](C(C)C)O2)OC1=O [bafilomycin Al, Bafilomycin A1]
levels of HER2 (HeLa cells): reduced HER2 levels
